{
  "source": "paper PMC12669672",
  "about": "“Structural insights into selective and dual antagonism of EP2 and EP4 prostaglandin receptors” (The EMBO Journal, 2025)",
  "test_in_all_cases": "GloSensor cAMP assay, antagonism of PGE2-induced cAMP",
  "format_in_all_cases": "cell-based",
  "key": {"EP2 S305A": {"target": "T1, EP2 S305A (Homo sapiens, UniProt P43116, S305A)", "T1 construct": "The full-length EP2 or EP4 was cloned into the pcDNA3.1 vector; FLAG (N); expressed in transfected cells; host or cells: AD293 cells", "T1 sequence (P43116 whole entry S305A)": "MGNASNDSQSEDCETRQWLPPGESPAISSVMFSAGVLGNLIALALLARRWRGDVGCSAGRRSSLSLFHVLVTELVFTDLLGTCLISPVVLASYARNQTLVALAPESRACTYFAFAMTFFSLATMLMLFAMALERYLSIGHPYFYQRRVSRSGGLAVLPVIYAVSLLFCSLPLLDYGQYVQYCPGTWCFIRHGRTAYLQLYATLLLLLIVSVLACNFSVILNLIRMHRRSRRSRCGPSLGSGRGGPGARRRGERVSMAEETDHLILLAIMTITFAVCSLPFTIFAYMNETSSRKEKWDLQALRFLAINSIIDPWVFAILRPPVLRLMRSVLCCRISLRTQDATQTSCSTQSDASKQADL", "conditions": "for cAMP activity (∆pIC50 from EP2 WT): TG6-129, S305A", "how_it_was_run": "(§1)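 Read-out is GloSensor luminescence from AD293 cells co-expressing FLAG-tagged EP2 variant and GloSensor22F biosensor, transfected at a 1:1 plasmid ratio. Cells were plated at 4000 per well in CO2-independent medium containing 2% cAMP reagent, incubated 1 h at 37 °C, then read.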"}, "EP2 S308A": {"target": "T2, EP2 S308A (Homo sapiens, UniProt P43116, S308A)", "T2 construct": "The full-length EP2 or EP4 was cloned into the pcDNA3.1 vector; FLAG (N); expressed in transfected cells; host or cells: AD293 cells", "T2 sequence (P43116 whole entry S308A)": "as the sequence (P43116 whole entry S305A) above, with A305S, S308A counted along it", "conditions": "for cAMP activity (∆pIC50 from EP2 WT): TG6-129, S308A", "how_it_was_run": "as §1"}, "EP2 S86A": {"target": "T3, EP2 S86A (Homo sapiens, UniProt P43116, S86A)", "T3 construct": "The full-length EP2 or EP4 was cloned into the pcDNA3.1 vector; FLAG (N); expressed in transfected cells; host or cells: AD293 cells", "T3 sequence (P43116 whole entry S86A)": "as the sequence (P43116 whole entry S305A) above, with S86A, A305S counted along it", "conditions": "for cAMP activity (∆pIC50 from EP2 WT): TG6-129, S86A", "how_it_was_run": "as §1"}, "EP2 T82A": {"target": "T4, EP2 T82A (Homo sapiens, UniProt P43116, T82A)", "T4 construct": "The full-length EP2 or EP4 was cloned into the pcDNA3.1 vector; FLAG (N); expressed in transfected cells; host or cells: AD293 cells", "T4 sequence (P43116 whole entry T82A)": "as the sequence (P43116 whole entry S305A) above, with T82A, A305S counted along it", "conditions": "for cAMP activity (∆pIC50 from EP2 WT): TG6-129, T82A", "how_it_was_run": "as §1"}, "EP4 S319A": {"target": "T5, EP4 S319A (Homo sapiens, UniProt P35408, S319A)", "T5 construct": "The full-length EP2 or EP4 was cloned into the pcDNA3.1 vector (Invitrogen), incorporating an N-terminal FLAG tag; expressed in transfected cells; host or cells: AD293", "T5 sequence (P35408 whole entry S319A)": "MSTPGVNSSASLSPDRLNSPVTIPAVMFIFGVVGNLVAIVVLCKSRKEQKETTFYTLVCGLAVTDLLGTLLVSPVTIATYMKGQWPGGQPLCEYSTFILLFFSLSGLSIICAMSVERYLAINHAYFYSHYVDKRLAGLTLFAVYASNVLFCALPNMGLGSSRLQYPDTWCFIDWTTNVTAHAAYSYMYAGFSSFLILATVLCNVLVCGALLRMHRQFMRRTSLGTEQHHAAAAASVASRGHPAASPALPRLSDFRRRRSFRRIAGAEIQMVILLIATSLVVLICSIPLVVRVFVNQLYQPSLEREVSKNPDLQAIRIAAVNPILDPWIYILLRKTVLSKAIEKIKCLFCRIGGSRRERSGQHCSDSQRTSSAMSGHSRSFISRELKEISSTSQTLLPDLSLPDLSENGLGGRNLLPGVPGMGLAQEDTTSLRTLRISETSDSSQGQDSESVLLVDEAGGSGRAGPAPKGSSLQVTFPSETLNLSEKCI", "conditions": "for cAMP activity (∆pIC50 from EP4 WT): TG6-129, S319A"}, "EP4 V320A": {"target": "T6, EP4 V320A (Homo sapiens, UniProt P35408, V320A)", "T6 construct": "The full-length EP2 or EP4 was cloned into the pcDNA3.1 vector (Invitrogen), incorporating an N-terminal FLAG tag; expressed in transfected cells; host or cells: AD293", "T6 sequence (P35408 whole entry V320A)": "as the sequence (P35408 whole entry S319A) above, with A319S, V320A counted along it"}, "[1]": {"conditions": "1 h, TG6-129 log([M]) -7, read-out: % cAMP activity (normalized to WT)"}, "[2]": {"conditions": "1 h, TG6-129 log([M]) -9, read-out: % cAMP activity (normalized to WT)"}, "[3]": {"conditions": "1 h, TG6-129 log([M]) -11, read-out: % cAMP activity (normalized to WT)"}, "[4]": {"conditions": "1 h, TG6-129 log([M]) -12, read-out: % cAMP activity (normalized to WT)"}, "[5]": {"conditions": "1 h, TG6-129 log([M]) -10, read-out: % cAMP activity (normalized to WT)"}, "[6]": {"conditions": "1 h, TG6-129 log([M]) -8, read-out: % cAMP activity (normalized to WT)"}, "[7]": {"conditions": "1 h, TG6-129 log([M]) -4.70, read-out: % cAMP activity (normalized to WT)"}, "[8]": {"conditions": "1 h, TG6-129 log([M]) -5.40, read-out: % cAMP activity (normalized to WT)"}, "[9]": {"conditions": "1 h, TG6-129 log([M]) -6.10, read-out: % cAMP activity (normalized to WT)"}, "[10]": {"conditions": "1 h, TG6-129 log([M]) -6.80, read-out: % cAMP activity (normalized to WT)"}, "[11]": {"conditions": "1 h, TG6-129 log([M]) -7.49, read-out: % cAMP activity (normalized to WT)"}, "[12]": {"conditions": "1 h, TG6-129 log([M]) -8.19, read-out: % cAMP activity (normalized to WT)"}, "[13]": {"conditions": "1 h, TG6-129 log([M]) -8.89, read-out: % cAMP activity (normalized to WT)"}},
  "note": "Values joined by “and” are separate entries in the source; they are usually repeats but may differ in a detail not shown here. Equal entries are not always repeated. Where two headings read alike, the source gives them in different places.",
  "data": [
    {"smiles": "CCc1nnc(NS(=O)(=O)c2ccc(NC(=S)NC(=O)/C=C/c3ccc(F)cc3)cc2)s1", "note": "[TG6-129]", "values": [
      {"measurement": "IC50", "setting": "EP2 S305A", "value": 28.8, "unit": "nM"},
      {"measurement": "remaining activity at 1 µM", "setting": "EP2 S305A; 1 h, TG6-129 log([M]) -6, read-out: % cAMP activity (normalized to WT)", "value": 9.02, "unit": "%"},
      {"measurement": "remaining activity at 0.1 µM", "setting": "EP2 S305A; [1]", "value": 12.5, "unit": "%"},
      {"measurement": "remaining activity at 0.001 µM", "setting": "EP2 S305A; [2]", "value": 44.8, "unit": "%"},
      {"measurement": "remaining activity at 10 pM", "setting": "EP2 S305A; [3]", "value": 67.8, "unit": "%"},
      {"measurement": "remaining activity at 1 pM", "setting": "EP2 S305A; [4]", "value": 54.8, "unit": "%"},
      {"measurement": "cAMP activity (∆pIC50 from EP2 WT)", "setting": "EP2 S305A; Mean", "value": 0.475},
      {"measurement": "cAMP activity (∆pIC50 from EP2 WT)", "setting": "EP2 S305A; single experiments 1st-3rd", "value": "0.478 and 0.360 and 0.586"},
      {"measurement": "IC50", "setting": "EP2 S308A", "value": 209, "unit": "nM"},
      {"measurement": "remaining activity at 0.1 µM", "setting": "EP2 S308A; [1]", "value": 80.3, "unit": "%"},
      {"measurement": "remaining activity at 0.0001 µM", "setting": "EP2 S308A; [5]", "value": 108, "unit": "%"},
      {"measurement": "remaining activity at 10 pM", "setting": "EP2 S308A; [3]", "value": 110, "unit": "%"},
      {"measurement": "cAMP activity (∆pIC50 from EP2 WT)", "setting": "EP2 S308A; Mean", "value": -0.534},
      {"measurement": "cAMP activity (∆pIC50 from EP2 WT)", "setting": "EP2 S308A; single experiments 1st-3rd", "value": "-0.496 and -0.568 and -0.537"},
      {"measurement": "IC50", "setting": "EP2 S86A", "value": 339, "unit": "nM"},
      {"measurement": "remaining activity at 0.01 µM", "setting": "EP2 S86A; [6]", "value": 39.3, "unit": "%"},
      {"measurement": "remaining activity at 0.0001 µM", "setting": "EP2 S86A; [5]", "value": 51.4, "unit": "%"},
      {"measurement": "remaining activity at 1 pM", "setting": "EP2 S86A; [4]", "value": 49.3, "unit": "%"},
      {"measurement": "cAMP activity (∆pIC50 from EP2 WT)", "setting": "EP2 S86A; Mean", "value": -0.714},
      {"measurement": "cAMP activity (∆pIC50 from EP2 WT)", "setting": "EP2 S86A; single experiments 1st-3rd", "value": "-0.638 and -0.681 and -0.823"},
      {"measurement": "IC50", "setting": "EP2 T82A", "value": 74.1, "unit": "nM"},
      {"measurement": "remaining activity at 0.01 µM", "setting": "EP2 T82A; [6]", "value": 28.8, "unit": "%"},
      {"measurement": "remaining activity at 0.001 µM", "setting": "EP2 T82A; [2]", "value": 38.9, "unit": "%"},
      {"measurement": "remaining activity at 10 pM", "setting": "EP2 T82A; [3]", "value": 40.1, "unit": "%"},
      {"measurement": "remaining activity at 1 pM", "setting": "EP2 T82A; [4]", "value": 33.8, "unit": "%"},
      {"measurement": "cAMP activity (∆pIC50 from EP2 WT)", "setting": "EP2 T82A; Mean", "value": -0.177},
      {"measurement": "cAMP activity (∆pIC50 from EP2 WT)", "setting": "EP2 T82A; single experiments 1st-3rd", "value": "-0.228 and -0.186 and -0.118"},
      {"measurement": "IC50", "setting": "EP4 S319A", "value": 20000, "unit": "nM"},
      {"measurement": "remaining activity at 100 µM", "setting": "EP4 S319A; 1 h, TG6-129 log([M]) -4.00, read-out: % cAMP activity (normalized to WT)", "value": 15.3, "unit": "%"},
      {"measurement": "remaining activity at […]", "setting": "EP4 S319A; [7]", "value": 26.4, "unit": "%"},
      {"measurement": "remaining activity at […]", "setting": "EP4 S319A; [8]", "value": 52.2, "unit": "%"},
      {"measurement": "remaining activity at […]", "setting": "EP4 S319A; [9]", "value": 50.8, "unit": "%"},
      {"measurement": "remaining activity at 0.1585 µM", "setting": "EP4 S319A; [10]", "value": 53.5, "unit": "%"},
      {"measurement": "remaining activity at 0.03236 µM", "setting": "EP4 S319A; [11]", "value": 57.1, "unit": "%"},
      {"measurement": "remaining activity at 0.006457 µM", "setting": "EP4 S319A; [12]", "value": 56.3, "unit": "%"},
      {"measurement": "remaining activity at 0.001288 µM", "setting": "EP4 S319A; [13]", "value": 49.4, "unit": "%"},
      {"measurement": "cAMP activity (∆pIC50 from EP4 WT)", "setting": "EP4 S319A; Mean", "value": -0.299},
      {"measurement": "cAMP activity (∆pIC50 from EP4 WT)", "setting": "EP4 S319A; single experiments 1st-3rd", "value": "-0.429 and -0.317 and -0.151"},
      {"measurement": "IC50", "setting": "EP4 V320A", "value": 13500, "unit": "nM"},
      {"measurement": "remaining activity at […]", "setting": "EP4 V320A; [7]", "value": 26.1, "unit": "%"},
      {"measurement": "remaining activity at […]", "setting": "EP4 V320A; [8]", "value": 66.6, "unit": "%"},
      {"measurement": "remaining activity at […]", "setting": "EP4 V320A; [9]", "value": 66.9, "unit": "%"},
      {"measurement": "remaining activity at 0.1585 µM", "setting": "EP4 V320A; [10]", "value": 68, "unit": "%"},
      {"measurement": "remaining activity at 0.03236 µM", "setting": "EP4 V320A; [11]", "value": 66.5, "unit": "%"},
      {"measurement": "remaining activity at 0.006457 µM", "setting": "EP4 V320A; [12]", "value": 70.4, "unit": "%"},
      {"measurement": "remaining activity at 0.001288 µM", "setting": "EP4 V320A; [13]", "value": 68.8, "unit": "%"},
      {"measurement": "ΔpIC50", "setting": "EP4 V320A; PGE2 0.5 nM, pIC50 mutant - pIC50 WT, mean", "value": "-0.11 ± 0.05"}
    ]}
  ]
}
